One series deals with S. epidermidis AJCCM228. Briefly: MIC, antibacterial activity. It is filed as cell-based.
The test system of another series is S. aureus NorA. Nature of the series: MIC, antibacterial activity. Type of series: cell-based.
For another series, the system named is MRSA. Nature of the series: MIC, antibacterial activity. Type of series: cell-based, Staphylococcus aureus. The note with it: strain C, Gram-positive.
Series [1] has as its system S. pyogenes serotype M12 (strain MGAS9429). Briefly: MIC, antibacterial activity. It is filed as cell-based.
Series [2] relates to S. mutans UA159. Nature of the series: MIC, antibacterial activity. Type of series: cell-based.
For the next series, the system named is B. subtilis 168. Nature of the series: MIC, antibacterial activity. It is filed as cell-based. The note with it: strain F, Gram-positive.
In series [3] the test system is B. subtilis 168 with AAC(6')/APH(2”)-pRB374. Briefly: MIC, antibacterial activity. It is filed as cell-based. The note with it: strain G, Gram-positive.
Another series deals with B. cereus ATCC11778. Briefly: MIC, antibacterial activity. Type of series: cell-based. The note with it: strain H, Gram-positive.
For series [4], the system named is B. anthracis 34F2 Sterne strain. Type of series: cell-based. The note with it: strain I, Gram-positive.
For the next series, the system named is VRE. Briefly: MIC, antibacterial activity. It is filed as cell-based, Enterococcus. The note with it: strain J, Gram-positive.
The next series relates to E. faecalis ATCC29212. Briefly: MIC, antibacterial activity. Type of series: cell-based.
Series [5] concerns L. monocyfogenes ATCC19115. Nature of the series: MIC, antibacterial activity. The note with it: strain L, Gram-positive. Type of series: cell-based, L. monocytogenes.
For a further series, the system named is E. coli BL21 (DE3). Briefly: MIC, antibacterial activity. Type of series: cell-based.
The test system of series [6] is E coli BL21 (DE3) with pET22b. Nature of the series: MIC, antibacterial activity. It is filed as cell-based.
For series [7], the system named is E. coli BL21 (DE3) with AAC(6')/APH(2”)-pET22b. Briefly: MIC, antibacterial activity. Type of series: cell-based.
In series [8] the test system is E. coli BL21 (DE3) with AAC(3)-IV-lnt-pET19b-pps. Nature of the series: MIC, antibacterial activity. Type of series: cell-based.
Series [9] concerns E. coli BL21 (DE3) with Eis. Briefly: MIC, antibacterial activity. It is filed as cell-based.
The next series relates to E. coli TolC. Nature of the series: MIC, antibacterial activity. It is filed as cell-based.
Another series has as its system E. coli MC1061. Nature of the series: MIC, antibacterial activity. Type of series: cell-based.
Series [10] deals with Shigella clinical isolate 6831. Briefly: MIC, antibacterial activity. Type of series: cell-based.
The test system of the next series is S. enterica ATCC14028. Nature of the series: MIC, antibacterial activity. The note with it: strain U, Gram-negative. It is filed as cell-based.
In series [11] the test system is S. mutans UA159. Briefly: Time of kill assay. The note with it: at MIC (4e 2.3 μg/mL, TOB 75 μg/mL); after 5 hours of incubation. Type of series: cell-based.
The next series concerns S. pyogenes. Briefly: Time of kill assay. Type of series: cell-based. The note with it: at MIC (4e 2.3 μg/mL, TOB 18.8 μg/mL); after 3 hours of incubation.
Series [12] relates to B. subtilis with constitutive YFP expression (PY79). Briefly: Fluorescence microscopy of YFP-expressing bacteria. It is filed as cell-based.
The next series has as its system rat RBCs. Briefly: Hemolysis assay. The note with it: 1 h at 37 °C.
The next series concerns human RBCs. Briefly: Hemolysis assay. The note with it: 1 h at 37 °C.
Series [13] concerns luciferase translation in lysates of E. coli. The note with it: read-out: IC50, inhibition of luciferase translation; cited from earlier work.

≈ marks a conversion by molar mass, not a printed value.

A word on the MIC: it is the lowest concentration found to suppress growth. On to `CCCCCCCCSCC1OC(OC2C(N)CC(N)C(OC3OC(CN)C(O)CC3N)C2O)C(O)C(N)C1O` (stereo not drawn) [4b], for which the MIC against S. epidermidis AJCCM228 (strain A, Gram-positive) is 75 µg/mL (≈ 126 µM); with S. aureus NorA (strain B, Gram-positive) it was 150 µg/mL (≈ 252 µM); against MRSA, above 150 µg/mL; in [1] (strain D, Gram-positive), 150 µg/mL (≈ 252 µM); with S. mutans UA159 [2] (strain E, Gram-positive) it was 150 µg/mL (≈ 252 µM); against B. subtilis 168 it was 37.5 µg/mL (≈ 62.9 µM). Moreover, the MIC is above 150 µg/mL in [3]; 150 µg/mL (≈ 252 µM) in the series on B. cereus ATCC11778; 75 µg/mL (≈ 126 µM) in [4]; above 150 µg/mL in the series on VRE; above 150 µg/mL in the series with E. faecalis ATCC29212 (strain K, Gram-positive); above 150 µg/mL in series [5]. Besides, the MIC was above 150 µg/mL against E. coli BL21 (DE3) (strain M, Gram-negative); above 150 µg/mL in [6] (strain N, Gram-negative); above 150 µg/mL in [7] (strain O, Gram-negative); above 150 µg/mL in series [8] (strain P, Gram-negative); above 150 µg/mL in series [9] (strain Q, Gram-negative); 9.4 µg/mL (≈ 15.8 µM) in the series on E. coli TolC (strain R, Gram-negative). Moreover, the MIC against E. coli MC1061 (strain S, Gram-negative) was 75 µg/mL (≈ 126 µM); in series [10] (strain T, Gram-negative), above 150 µg/mL; with S. enterica ATCC14028, above 150 µg/mL.

Take `CCCCCCCCCCSCC1OC(OC2C(N)CC(N)C(OC3OC(CN)C(O)CC3N)C2O)C(O)C(N)C1O` (stereo not drawn) [4c]: the MIC came out at 37.5 µg/mL (≈ 60.1 µM) against S. aureus NorA (strain B, Gram-positive); 75 µg/mL (≈ 120 µM) against MRSA; 37.5 µg/mL (≈ 60.1 µM) in the series with B. subtilis 168; 18.8 µg/mL (≈ 30.1 µM) in the series on B. cereus ATCC11778; 37.5 µg/mL (≈ 60.1 µM) in series [5]; 75 µg/mL (≈ 120 µM) against E. coli BL21 (DE3) (strain M, Gram-negative).

Turning to `CCCCCCCCCCCCSCC1OC(OC2C(N)CC(N)C(OC3OC(CN)C(O)CC3N)C2O)C(O)C(N)C1O` (stereo not drawn) [4d], the minimal inhibitory concentration (MIC) against MRSA amounted to 37.5 µg/mL (≈ 57.5 µM); in [5] it was 18.8 µg/mL (≈ 28.8 µM); against E. coli BL21 (DE3) (strain M, Gram-negative), 18.8 µg/mL (≈ 28.8 µM); against E. coli MC1061 (strain S, Gram-negative) it was 18.8 µg/mL (≈ 28.8 µM).

As for `CCCCCCCCCCCCCCSC[C@H]1O[C@H](O[C@@H]2[C@@H](O)[C@H](O[C@H]3O[C@H](CN)[C@@H](O)C[C@H]3N)[C@@H](N)C[C@H]2N)[C@H](O)[C@@H](N)[C@@H]1O` [4e], the MIC was 9.4 µg/mL (≈ 13.8 µM) in the series with S. aureus NorA (strain B, Gram-positive); 9.4 µg/mL (≈ 13.8 µM) against MRSA; 2.3 µg/mL (≈ 3.38 µM) in series [1] (strain D, Gram-positive); 2.3 µg/mL (≈ 3.38 µM) against S. mutans UA159 [2] (strain E, Gram-positive); 4.7 µg/mL (≈ 6.91 µM) in [3]; 0.3 µg/mL (≈ 0.441 µM) in [4]. In addition, the MIC with VRE is 18.8 µg/mL (≈ 27.6 µM); in the series on E. faecalis ATCC29212 (strain K, Gram-positive) it was 75 µg/mL (≈ 110 µM); in series [5], 9.4 µg/mL (≈ 13.8 µM); with E. coli BL21 (DE3) (strain M, Gram-negative), 4.7 µg/mL (≈ 6.91 µM); in series [6] (strain N, Gram-negative), 4.7 µg/mL (≈ 6.91 µM); in [7] (strain O, Gram-negative) it was 4.7 µg/mL (≈ 6.91 µM). The minimum inhibitory concentration (MIC) in series [8] (strain P, Gram-negative) worked out at 2.3 µg/mL (≈ 3.38 µM); in [9] (strain Q, Gram-negative), 4.7 µg/mL (≈ 6.91 µM); with E. coli TolC (strain R, Gram-negative) it was 4.7 µg/mL (≈ 6.91 µM); in the series with E. coli MC1061 (strain S, Gram-negative), 4.7 µg/mL (≈ 6.91 µM); in the series on S. enterica ATCC14028, 37.5 µg/mL (≈ 55.1 µM). For the same compound, the “Time of kill: viable bacteria after incubation” value in the series with S. mutans UA159 [11] and in the series on S. pyogenes was “no viable bacteria remained” throughout. Besides, the “Cell viability / YFP fluorescence by microscopy” value in series [12] is listed as “a significant drop in fluorescence”. For the same compound, in the series on rat RBCs (18.8 μg/mL), the “hemolysis of rat RBCs” value is recorded as 19.5 ± 0.3%. For the same compound, the “hemolysis of human RBCs” value in the series on human RBCs (18.8 μg/mL) was determined as 14.3 ± 1.7%.

Take `CCCCCCCCCCCCS(=O)(=O)CC1OC(OC2C(N)CC(N)C(OC3OC(CN)C(O)CC3N)C2O)C(O)C(N)C1O` (stereo not drawn) [6d]: the MIC amounted to 9.4 µg/mL (≈ 13.7 µM) in the series on S. epidermidis AJCCM228 (strain A, Gram-positive); 37.5 µg/mL (≈ 54.8 µM) in the series on S. aureus NorA (strain B, Gram-positive); 75 µg/mL (≈ 110 µM) against MRSA; 18.8 µg/mL (≈ 27.5 µM) in series [1] (strain D, Gram-positive); 9.4 µg/mL (≈ 13.7 µM) with S. mutans UA159 [2] (strain E, Gram-positive); 4.7 µg/mL (≈ 6.87 µM) against B. subtilis 168. Also, the minimum inhibitory concentration (MIC) in series [3] is above 150 µg/mL; with B. cereus ATCC11778, 9.4 µg/mL (≈ 13.7 µM); in series [4], 2.3 µg/mL (≈ 3.36 µM); against VRE, 75 µg/mL (≈ 110 µM); in the series with E. faecalis ATCC29212 (strain K, Gram-positive), 9.4 µg/mL (≈ 13.7 µM); in series [5], 9.4 µg/mL (≈ 13.7 µM). For the same compound, the MIC against E. coli BL21 (DE3) (strain M, Gram-negative) is 75 µg/mL (≈ 110 µM); in series [6] (strain N, Gram-negative), above 150 µg/mL; in [7] (strain O, Gram-negative), above 150 µg/mL; in series [8] (strain P, Gram-negative), above 150 µg/mL; in series [9] (strain Q, Gram-negative), above 150 µg/mL; in the series with E. coli TolC (strain R, Gram-negative), 2.3 µg/mL (≈ 3.36 µM). Besides, the minimum inhibitory concentration (MIC) in the series on E. coli MC1061 (strain S, Gram-negative) is 18.8 µg/mL (≈ 27.5 µM); in series [10] (strain T, Gram-negative), above 150 µg/mL; against S. enterica ATCC14028, above 150 µg/mL.

For `CCCCCCCCCCCCCCS(=O)(=O)CC1OC(OC2C(N)CC(N)C(OC3OC(CN)C(O)CC3N)C2O)C(O)C(N)C1O` (stereo not drawn) [6e], the MIC was 18.8 µg/mL (≈ 26.4 µM) against S. aureus NorA (strain B, Gram-positive); 18.8 µg/mL (≈ 26.4 µM) with MRSA; 37.5 µg/mL (≈ 52.7 µM) against VRE; 18.8 µg/mL (≈ 26.4 µM) against E. coli BL21 (DE3) (strain M, Gram-negative).

For orientation: IC50 means the midpoint of a concentration-inhibition curve. As for `NC[C@H]1O[C@H](O[C@H]2[C@H](O)[C@@H](O[C@H]3O[C@H](CO)[C@@H](O)[C@H](N)[C@H]3O)[C@H](N)C[C@@H]2N)[C@H](N)C[C@@H]1O` [TOB, tobramycin, reference compound], the MIC against S. epidermidis AJCCM228 (Staphylococcus epidermidis, AJCCM228) was 0.3 µg/mL (≈ 0.642 µM); against S. aureus NorA (Staphylococcus aureus), 9.4 µg/mL (≈ 20.1 µM); with MRSA (Staphylococcus aureus, MRSA) it was at least 150 µg/mL; in series [1] (Streptococcus pyogenes), 18.8 µg/mL (≈ 40.2 µM); against S. mutans UA159 [2] (Streptococcus mutans, UA159) it was 75 µg/mL (≈ 160 µM); in the series with VRE (Enterococcus, VRE), at least 150 µg/mL. Moreover, the MIC against E. faecalis ATCC29212 (Enterococcus faecalis, ATCC29212) is 150 µg/mL (≈ 321 µM); with E. coli BL21 (DE3) (Escherichia coli) it was 4.7 µg/mL (≈ 10.1 µM); in series [6] (Escherichia coli) it was 9.4 µg/mL (≈ 20.1 µM); in [7] (Escherichia coli), above 150 µg/mL; in [7] (strain O, Gram-negative) it was above 150 µg/mL; in series [8] (Escherichia coli), 150 µg/mL (≈ 321 µM). For the same compound, the MIC in [9] (Escherichia coli) amounted to 18.8 µg/mL (≈ 40.2 µM); with E. coli TolC (Escherichia coli) it was 4.7 µg/mL (≈ 10.1 µM); in the series with E. coli MC1061 (Escherichia coli, MC1061) it was 9.4 µg/mL (≈ 20.1 µM); in series [10] (Shigella) it was 18.8 µg/mL (≈ 40.2 µM). For the same compound, the “Time of kill: viable bacteria after incubation” value in the series with S. mutans UA159 [11] and in the series with S. pyogenes was “almost no reduction in bacterial growth” in each case. For the same compound, the IC50 in series [13] is around 20 nM. For the same compound, the “hemolysis of rat RBCs” value in the series on rat RBCs (75 μg/mL) is “no measurable hemolysis”. Moreover, in the series with human RBCs (75 μg/mL), the “hemolysis of human RBCs” value is reported as “no measurable hemolysis”.

(Values after publication PMC3390782 (Angewandte Chemie (International Ed. in English), 2012).)
